The test system of data set [1] is C57BL6 mice. The conditions noted are these: mouse, in vivo.
For data set [2], the system named is C57BL6 mice. The data set can be described thus: Morphine-induced analgesia in a hot plate assay. In kind it is in vivo, mouse. The conditions noted are these: dose used in prolactin/rotarod experiments; data not shown.
For another data set, the system named is rodents. The conditions noted are these: ref Valenza et al., 2017; cited from earlier work.
The subject of the next data set is mice. The conditions noted are these: cited from earlier work.
A further data set concerns the target DOR (Homo sapiens, UniProt P41143). The data set can be described thus: Opioid receptor binding, DOR.
The test system of the next data set is dopamine D2 receptor. The conditions noted are these: ref Spetea et al., 2012; cited from earlier work.
Data set [3] has as its system C57BL6 mice. The conditions noted are these: mouse, in vivo. The source holds these as a separate data set.
For a further data set, the target named is MOR (Rattus norvegicus, UniProt P33535). The data set can be described thus: Opioid receptor binding, MOR.
Sequence of MOR (P33535 whole entry): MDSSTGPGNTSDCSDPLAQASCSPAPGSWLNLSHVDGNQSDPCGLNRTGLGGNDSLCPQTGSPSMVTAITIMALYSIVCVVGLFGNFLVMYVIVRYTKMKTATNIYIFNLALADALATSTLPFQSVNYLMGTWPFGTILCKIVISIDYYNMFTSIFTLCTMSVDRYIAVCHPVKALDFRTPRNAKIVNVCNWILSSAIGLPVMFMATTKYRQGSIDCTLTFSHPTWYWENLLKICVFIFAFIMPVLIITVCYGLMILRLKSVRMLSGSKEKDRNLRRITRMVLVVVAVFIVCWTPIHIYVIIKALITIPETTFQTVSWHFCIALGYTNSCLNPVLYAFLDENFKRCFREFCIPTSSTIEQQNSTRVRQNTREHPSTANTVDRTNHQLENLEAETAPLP
The conditions of data set [4]: up to 10 mg/kg; ref Erli et al. 2017; cited from earlier work.
For data set [5] the following is noted: ref White et al., 2015, cited from earlier work.
Another data set concerns caudate putamen. The conditions noted are these: 3.2 mg/kg, ref Zhang et al., 2005, cited from earlier work.

Sequence of DOR (P41143 whole entry): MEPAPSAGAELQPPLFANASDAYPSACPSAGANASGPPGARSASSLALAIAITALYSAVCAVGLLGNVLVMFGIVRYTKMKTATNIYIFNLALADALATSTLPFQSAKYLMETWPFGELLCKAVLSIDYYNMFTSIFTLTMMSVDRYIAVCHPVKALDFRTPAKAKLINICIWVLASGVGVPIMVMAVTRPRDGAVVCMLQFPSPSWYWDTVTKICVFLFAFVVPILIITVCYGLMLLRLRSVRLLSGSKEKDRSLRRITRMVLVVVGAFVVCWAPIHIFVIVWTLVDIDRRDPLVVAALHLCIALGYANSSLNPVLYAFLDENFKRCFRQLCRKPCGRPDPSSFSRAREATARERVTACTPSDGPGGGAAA

Take `NC(=O)c1ccc(Oc2ccc(CN3CCC[C@H]3c3cccc(F)c3)cc2)c(F)c1` [LY2444296, (S)-3-fluoro-4-(4-((2-(3-fluorophenyl)pyrrolidin-1-yl)methyl)phenoxy)benzamide]: in the data set with C57BL6 mice [1], the “Blockade of U50,488-stimulated prolactin release” value was “blocks the effects” and the “Effect of antagonist alone on serum prolactin” value is “no effect on prolactin”. Further, in the data set on C57BL6 mice [2], the “Effect on morphine-induced analgesia in hot plate assay” value was “does not inhibit morphine-induced analgesia”. In addition, the “Duration of action (short-acting)” value with rodents is under 48 h.
As to `Oc1cccc(CCN(CCc2ccccc2)CC2CCC2)c1` [MCBPHA, N-methylcyclobutyl-N-phenylethyl-N-3-hydroxyphenylethyl-amine], in the data set with C57BL6 mice [1], the “Effect on serum prolactin after LY2444296 pretreatment” value is on record as “blocked the effect”. The “Potency in peripheral analgesia (acetic acid writhing)” value in the data set with mice (mice, ref Spetea et al., 2012) is “equally potent as the well-characterized KOR agonist U50,488”. Moreover, the “Efficacy in an analgesia assay in mice” value in the data set with mice (ref Spetea et al. 2012, Erli et al. 2017) is “efficacy”. Further, the Ki (usually the equilibrium dissociation constant of an inhibitor or competing ligand from its target) at DOR was 3000 nM; on MOR, 270 nM. Besides, the “Affinity and agonism at the dopamine D2 receptor” value in the data set with dopamine D2 receptor was “low affinity and no agonism”. The “Rotarod incoordination after LY2444296 pretreatment” value in the data set with C57BL6 mice [3] is “blocked”. Also, in [4], the “Locomotor defects in the rotarod assay” value was “neither of these compounds caused locomotor defects”.
As to `COC(=O)[C@@H]1C[C@H](OC(=O)CSC#N)C(=O)[C@H]2[C@@]1(C)CC[C@H]1C(=O)O[C@H](c3ccoc3)C[C@]21C` [RB-64], the “Effect on the rotarod” value in data set [5] is “did not have an effect on the rotarod”.
Turning to `COC(=O)[C@@H]1C[C@H](OC(C)=O)C(=O)[C@H]2[C@@]1(C)CC[C@H]1C(=O)O[C@H](c3ccoc3)C[C@]21C` [salvinorin A], in the data set with caudate putamen (after administration), the “Duration of decrease of extracellular dopamine” value is given as “at least 3 hours”. The “Decrease of extracellular dopamine in the caudate putamen” value in the data set on caudate putamen (systemic) is reported as “over 50%”. Besides, the “Time after injection at which rotarod incoordination begins returning to normal” value in data set [5] (3 mg/kg) was at most 30 min.
